# Test results: paper doi:10.1101/2024.08.25.609621 (bioRxiv, 2024)
# Read-outs that look alike come from different tables or passages of the source.
# Target: SARS-CoV-2 NSP3 macrodomain (Mac1), P43 crystal form (Severe acute respiratory syndrome coronavirus 2, UniProt P0DTD1)
# Assay type: binding
# Conditions: for 1-BDC: PanDDA background density correction; for Total number of conformations: ligand conformations modeled in Mac1 crystal structure
# [1] = TRUE = crystal structure with ligand determined
# [2] = crystal soak concentration 20 mM
# [3] = crystal soak concentration 20 mM, event 1
# [4] = crystal soak concentration 20 mM, P43 crystals
# [5] = crystal soak, soak concentration 10 mM
# [6] = crystal soak, soak concentration 10 mM, P43 crystals, TRUE = ligand-binding event identified
# [7] = crystal soak, soak concentration 10 mM, event 1
# [8] = crystal soak, soak concentration 10 mM, TRUE = ligand modeled
# [9] = occupancy estimate from PanDDA 1-BDC
# [10] = site of Mac1 where ligand bound in crystal structure
# [11] = crystal soak concentration 3 mM, P43 crystals
# [12] = crystal soak concentration 3 mM
# [13] = crystal soak concentration 10 mM, event 1
# [14] = crystal soak concentration 10 mM, P43 crystals
# [15] = crystal soak concentration 10 mM
# [16] = crystal soak, soak concentration 10 mM, TRUE = ligand hit
# [17] = crystal structure with Mac1 determined (TRUE)
# [18] = site of ligand in Mac1 crystal structure
# [19] = X-ray crystal structure determined (TRUE)
# [20] = crystal soak 10 mM, P43 crystals
# [21] = site of ligand in X-ray crystal structure
Compound,1-BDC,X-ray crystal structure [1],"PanDDA run, DMSO background map: Hit [2]","PanDDA run, DMSO background map: 1-BDC [3]","Pandda run, overall: Hit [4]",Total number of conformations,2*(1-BDC) (%) [9] [%],Binding site [10],"Pandda run, overall: Hit [16]","PanDDA run, DMSO background map: 1-BDC (soak concentration 10 mM)","PanDDA run, DMSO background map: Hit (soak concentration 10 mM)",other results
O=C(O)C1CCCN1S(=O)(=O)c1cccc2nsnc12 (stereo not shown) [AVI-2],0.2,TRUE,TRUE,0.22,TRUE,1,40,Adenosine,,,,"Pandda run, overall: Modeling comment [4]: Duplicate, not modeled; Pandda run, overall: Modeling comment [5]: DMSO; Pandda run, overall: Hit [6]: TRUE; PanDDA run, DMSO background map: Hit [5]: TRUE; PanDDA run, DMSO background map: Modeled [5]: TRUE; PanDDA run, DMSO background map: 1-BDC [7]: 0.2; Pandda run, overall: Modeled [8]: TRUE"
CC1CC(C(=O)O)CCN1C(=O)c1ccc2c(c1)NC(=O)CO2 (stereo not shown) [AVI-303],0.13,TRUE,TRUE,0.19,TRUE,1,26,Adenosine,,,,"Pandda run, overall: Modeling comment [4]: Duplicate, not modeled; Pandda run, overall: Hit [6]: TRUE; PanDDA run, DMSO background map: Hit [5]: TRUE; PanDDA run, DMSO background map: Modeled [5]: TRUE; PanDDA run, DMSO background map: 1-BDC [7]: 0.13; Pandda run, overall: Modeled [8]: TRUE"
Cc1c(C)n(Cc2ccccc2)c2ncnc(N)c12 [AVI-321],0.08,TRUE,,,,1,16,Adenosine,,,,"PanDDA run, DMSO background map: 1-BDC (event 1): 0.15; Pandda run, overall: Hit [11]: TRUE; Pandda run, overall: Modeled [11]: TRUE; PanDDA run, DMSO background map: Hit [12]: TRUE; PanDDA run, DMSO background map: Modeled [12]: TRUE; PanDDA run, DMSO background map: 1-BDC (crystal soak concentration 3 mM, event 1): 0.08"
Cc1cc2c(=O)n(CCN3C(=O)c4ccccc4S3(=O)=O)nnc2s1 [AVI-341],0.18,TRUE,TRUE,0.19,TRUE,1,36,Adenosine,,,,"PanDDA run, DMSO background map: 1-BDC [13]: 0.18; Pandda run, overall: Hit [14]: TRUE; Pandda run, overall: Modeled [14]: TRUE; PanDDA run, DMSO background map: Hit [15]: TRUE; PanDDA run, DMSO background map: Modeled [15]: TRUE; Pandda run, overall: Modeling comment [4]: Duplicate, not modeled"
CNc1ccc(NS(=O)(=O)c2cc3cccc(C)c3s2)cn1 [AVI-345],0.26,TRUE,TRUE,0.26,TRUE,1,,Adenosine,,,,"Occupancy difference (refined_occupancy - 2*(1-BDC)): 0; Refined ligand occupancy (%): 52%; PanDDA run, DMSO background map: 1-BDC [13]: 0.17; Pandda run, overall: Hit [14]: TRUE; Pandda run, overall: Modeling comment [14]: Duplicate, not modeled; PanDDA run, DMSO background map: Hit [15]: TRUE; PanDDA run, DMSO background map: Modeled [2]: TRUE; Pandda run, overall: Modeled [4]: TRUE; 2*(1-BDC) (%) (occupancy estimate from PanDDA BDC): 52%"
CC1CCN(C(=O)c2ccc3c(c2)nc(CO)n3C)CC1C(=O)O (stereo not shown) [AVI-348],0.25,TRUE,TRUE,0.34,TRUE,1,50,Adenosine,,,,"PanDDA run, DMSO background map: 1-BDC [13]: 0.25; Pandda run, overall: Hit [14]: TRUE; Pandda run, overall: Modeled [14]: TRUE; PanDDA run, DMSO background map: Hit [15]: TRUE; PanDDA run, DMSO background map: Modeled [15]: TRUE; Pandda run, overall: Modeling comment [4]: Duplicate, not modeled"
OC[C@@H]1C[C@H](F)CN1c1ncnc2[nH]ccc12 [AVI-609],0.17,,,,,1,34,,TRUE,0.17,TRUE,"Pandda run, overall: Modeled [5]: TRUE; X-ray crystallography: Binding site (site where the ligand is bound in the X-ray crystal structure): Adenosine"
NC(=O)C1(O)CCN(c2ncnc3[nH]ccc23)C1 (stereo not shown) [AVI-611],0.22,,,,,2,44,,TRUE,0.22,TRUE,"Pandda run, overall: Modeled [5]: TRUE; X-ray crystal structure [17]: TRUE; Binding site [18]: Adenosine"
CCC1(O)CCN(c2ncnc3[nH]ccc23)C1 (stereo not shown) [AVI-612],0.17,,,,,1,34,,,,,"Pandda run, overall: Modeled (crystal soak, soak concentration 5 mM): TRUE; Pandda run, overall: Hit (crystal soak, soak concentration 5 mM, TRUE = ligand hit): TRUE; X-ray crystal structure [17]: TRUE; Binding site [18]: Adenosine; PanDDA run, DMSO background map: 1-BDC (soak concentration 5 mM): 0.17; PanDDA run, DMSO background map: Hit (soak concentration 5 mM): TRUE"
CN(C)C[C@@]1(O)CCCN(c2ncnc3[nH]ccc23)C1 [AVI-614],,,,,,,,,TRUE,0.17,TRUE,"Pandda run, overall: Modeling comment [5]: Weak density, not modeled"
O[C@@H]1CN(c2ncnc3[nH]ccc23)C[C@H]1F [AVI-616],0.2,,,,,1,40,,TRUE,0.2,TRUE,"Pandda run, overall: Modeled [5]: TRUE; X-ray crystal structure [17]: TRUE; Binding site [18]: Adenosine"
O=C(O)C(F)(F)F.OC1c2ccccc2CC1Nc1ncnc2[nH]ccc12 (stereo not shown) [AVI-3634],,,,,,,,,,,,"Pandda run, overall: Modeling comment [5]: TFA only"
CCC(Nc1ncnc2[nH]ccc12)C(C)O (stereo not shown) [AVI-3635],0.14,,,,,2,28,,TRUE,0.23,TRUE,"X-ray crystal structure [19]: TRUE; Pandda run, overall: Hit [20]: TRUE; Pandda run, overall: Modeled [20]: TRUE; PanDDA run, DMSO background map: 1-BDC (crystal soak 10 mM): 0.14; PanDDA run, DMSO background map: Hit (crystal soak 10 mM): TRUE; Binding site [21]: Adenosine"
OCC(CC(F)(F)F)Nc1ncnc2[nH]ccc12 (stereo not shown) [AVI-3637],0.23,,,,,1,46,,TRUE,0.23,TRUE,"X-ray crystal structure [19]: TRUE; Pandda run, overall: Modeled [5]: TRUE; Binding site [21]: Adenosine"
OCC(Nc1ncnc2[nH]ccc12)C1CCC1 (stereo not shown) [AVI-3638],0.13,,,,,1,26,,,,,"X-ray crystal structure [19]: TRUE; Pandda run, overall: Hit [20]: TRUE; Pandda run, overall: Modeled [20]: TRUE; PanDDA run, DMSO background map: 1-BDC (crystal soak 10 mM): 0.13; PanDDA run, DMSO background map: Hit (crystal soak 10 mM): TRUE; Binding site [21]: Adenosine"
O=C(O)C(F)(F)F.O[C@H]1CCC[C@@H]1Nc1ncnc2[nH]ccc12 [AVI-3639],0.11,,,,,1,22,,,,,"X-ray crystal structure [19]: TRUE; Pandda run, overall: Hit [20]: TRUE; Pandda run, overall: Modeled [20]: TRUE; PanDDA run, DMSO background map: 1-BDC (crystal soak 10 mM): 0.11; PanDDA run, DMSO background map: Hit (crystal soak 10 mM): TRUE; Binding site [21]: Adenosine"
